In patent US20230248814A1, “COMPOSITIONS AND METHODS FOR TREATING MERKEL CELL CARCINOMA (MCC) USING HLA CLASS I SPECIFIC EPITOPES” (The Broad Institute, Inc., priority 2020, published 2023):
“Also recorded” adds a separate entry of the source.

How the values were obtained:
[1] = molecular target: USP7 (Homo sapiens, UniProt Q93009); conditions: cited from earlier work
[2] = system: advanced hormone refractory prostate cancer patients; conditions: personalized vaccination combined with low dose estramustine; cited from earlier work
[3] = system: MCC lines; assay: Flow cytometry for HLA-I surface expression in MCC lines after interferon treatment; format: cell-based, human
Method: (§1) Flow cytometry. Cells were dissociated with Versene and incubated with 5 µL Human TruStain FcX (Fc Receptor Blocking Solution; Biolegend # 422302) per million cells in 100 µL at room temperature for 10 min. Fluorophore-conjugated antibodies or respective isotype controls were added and incubated for another 30 min at 4° C. Cells were then washed once with PBS and resuspended in PBS or 4% paraformaldehyde and analyzed on an LSR Fortessa cytometer. For HLA-I and HLA-II detection, the following antibodies were used: HLA-ABC (W6/32 clone) conjugated to PE (BioLegend # 311406), APC (BioLegend # 311410), or AF647 (Santa Cruz Biotechnology # sc32235 AF647), and HLA-DR-FITC (BioLegend # 307604).

[4] = system: MCC-301 cell line; assay: Flow cytometry assessment of HLA-DR expression after IFN-γ; format: cell-based, human
Method: as §1

[5] = system: MCC cell lines; assay: HLA-I immunopeptidome (LC-MS/MS) of MCC cell lines at baseline and after IFN-γ; format: cell-based, human; conditions: for increase in abundance of class I bound peptides (median): IFN-γ stimulation
Method: Immunoprecipitation and mass spectrometry analysis, and peptide identification. Up to 40 million or 0.2 g of MCC cells were immunoprecipitated. Briefly, MCC cells were harvested and lysed in ice-cold lysis buffer containing […] (pH 8.0), 1 mM EDTA (pH 8.0), 0.1 M sodium chloride, Triton X-100, 0.06 M octyl β-d-glucopyranoside, 100 U/mL DNAse I, 1 mM phenylmethanesulfonyl fluoride (all from Sigma Aldrich), and protease inhibitor cocktail (Roche Diagnostics). Cell lysate was centrifuged at 12,700 rpm at 4° C. for 22 min. Lysate supernatant was coupled with Gammabind Plus sepharose beads (GE Healthcare) and incubated with 10 µg of HLA-I antibody (Clone W6/32, Santa Cruz Biotechnologies) at 4° C. under rotary agitation for 3 h. After incubation, the lysate-bead-antibody mixture was briefly centrifuged and the supernatant was discarded. Beads were washed with lysis buffer, consisting of wash buffer containing 40 mM Tris (pH 8.0), 1 mM EDTA (pH 8.0), 0.1 M sodium chloride, 0.06 M octyl β-d-glucopyranoside, and 20 mM Tris buffer, without protease inhibitors. Gel loading tips (Fisherbrand) were used to remove as much fluid from beads as possible. Peptides of up to three immunoprecipitations were combined, acid eluted, and analyzed using LC/MS-MS as described previously (35, 82). Briefly, peptides were resuspended in 3% acetonitrile with 5% formic acid and loaded onto an analytical column (20-30 cm with 1.9 µm C18 Reprosil beads, Dr. Maisch HPLC GmbH);, packed in-house). Peptides were eluted in a 6-30% gradient (EasyLC 1000 or 1200, Thermo Fisher Scientific) and analyzed on a QExactive Plus, Fusion Lumos, or Orbitrap Exploris 480 (Thermo Fisher Scientific). For Lumos measurements, peptides were also subjected to fragmentation if they were singly charged. […] Fractions were analyzed on a Fusion Lumos or Orbitrap Exploris 480 equipped with a FAIMSpro interface (83).
Mass spectra were interpreted using Spectrum Mill software package v7.1 pre-Release (Broad Institute, Cambridge, MA). […] MS/MS spectra were searched against a protein sequence database that contained 90,904 entries, including all UCSC Genome Browser genes with hg19 annotation of the genome and its protein coding transcripts (52,788 entries), common human virus sequences (30,181 entries), recurrently mutated proteins observed in tumors from 26 tissues (4,595 entries), 264 common laboratory contaminants as well as protein sequences containing somatic mutations detected in MCC cell lines (3,076 entries). […]

[6] = system: MCC lines; assay: RNA-seq of class I antigen presentation genes in MCC lines before and after IFN-γ; format: cell-based, human; conditions: IFN-γ treatment vs baseline
Method: RNA sequencing and analysis. For samples from the MCC tumors and newly generated cell lines, RNA was first assessed for quality using the Agilent Bioanalyzer (DV200 metric). 100 ng of RNA were used as the input for first strand cDNA synthesis using Superscript III reverse transcriptase and Illumina’s TruSeq RNA Access Sample Prep Kit. Synthesis of the second strand of cDNA was followed by indexed adapter ligation with UMI (unique molecular index) adaptors. Subsequent PCR amplification enriched for adapted fragments. Amplified libraries were quantified, normalized, pooled, and hybridized with exome targeting oligos. Following hybridization, bead clean-up, elution, and PCR was performed to prepare library pools for sequencing on Illumina flowcell lanes. Transcriptomes were sequenced to a coverage of at least 50 million reads in pairs.
Gene counts were obtained from BAM files using featureCounts version 2.0.0 (74). Very lowly expressed genes with average count across samples less than 1 were excluded from analysis. […]
Differential expression analysis was carried out between IFN-γ plus and minus samples (adjusting for viral status as a covariate) using the negative binomial GLM Wald test of DESeq2, where significance was assessed using the p-values adjusted for multiple comparisons under default settings. […]

[7] = system: ovarian carcinoma patients; conditions: poly-ICLC with NY-ESO-1 peptide vaccine and Montanide; cited from earlier work
[8] = system: healthy human volunteers; conditions: one single s.c. administration; 8 subjects vs 4 placebo; cited from earlier work
[9] = system: PBMCs from patient MCC-367; assay: IFN-γ ELISpot with autologous PBMCs of patient MCC-367; format: cell-based, human; conditions: 10 ug/ml peptide
Method: ELISpot. Matching patient peripheral blood mononuclear cells (PBMCs) from patient MCC-367 were thawed, and 10^7 cells per well were seeded in 24 well plates overnight. Cells were stimulated with 10 ug/ml of the LT antigen peptide […] (SEQ ID NO:1) (identified in the MCC-367 HLA peptidome, FIG. 3F) in complete DMEM supplemented with 10% Human serum and 20 ng/ml IL-7 (PeproTech). After 3 days of stimulation, cells were supplemented with 20 units/mL IL-2 (PeproTech). After 10 days of stimulation, cells were cytokine deprived overnight. 50,000 cells per well were stimulated in an IFN- γ ELISpot assay with 10 ug/ml of the […] (SEQ ID NO:1) peptide. DMSO and an HIV-GAG peptide were used as negative controls. CEF (Mabtech) and PHA (Sigma Aldrich) were used as positive controls (not shown). ELISpot and T cell culture methods were described in detail previously (23, 86).

[10] = IFN-γ, 8 IFN-γ-inducible MCC lines

Chain of USP7 (Q93009 whole entry): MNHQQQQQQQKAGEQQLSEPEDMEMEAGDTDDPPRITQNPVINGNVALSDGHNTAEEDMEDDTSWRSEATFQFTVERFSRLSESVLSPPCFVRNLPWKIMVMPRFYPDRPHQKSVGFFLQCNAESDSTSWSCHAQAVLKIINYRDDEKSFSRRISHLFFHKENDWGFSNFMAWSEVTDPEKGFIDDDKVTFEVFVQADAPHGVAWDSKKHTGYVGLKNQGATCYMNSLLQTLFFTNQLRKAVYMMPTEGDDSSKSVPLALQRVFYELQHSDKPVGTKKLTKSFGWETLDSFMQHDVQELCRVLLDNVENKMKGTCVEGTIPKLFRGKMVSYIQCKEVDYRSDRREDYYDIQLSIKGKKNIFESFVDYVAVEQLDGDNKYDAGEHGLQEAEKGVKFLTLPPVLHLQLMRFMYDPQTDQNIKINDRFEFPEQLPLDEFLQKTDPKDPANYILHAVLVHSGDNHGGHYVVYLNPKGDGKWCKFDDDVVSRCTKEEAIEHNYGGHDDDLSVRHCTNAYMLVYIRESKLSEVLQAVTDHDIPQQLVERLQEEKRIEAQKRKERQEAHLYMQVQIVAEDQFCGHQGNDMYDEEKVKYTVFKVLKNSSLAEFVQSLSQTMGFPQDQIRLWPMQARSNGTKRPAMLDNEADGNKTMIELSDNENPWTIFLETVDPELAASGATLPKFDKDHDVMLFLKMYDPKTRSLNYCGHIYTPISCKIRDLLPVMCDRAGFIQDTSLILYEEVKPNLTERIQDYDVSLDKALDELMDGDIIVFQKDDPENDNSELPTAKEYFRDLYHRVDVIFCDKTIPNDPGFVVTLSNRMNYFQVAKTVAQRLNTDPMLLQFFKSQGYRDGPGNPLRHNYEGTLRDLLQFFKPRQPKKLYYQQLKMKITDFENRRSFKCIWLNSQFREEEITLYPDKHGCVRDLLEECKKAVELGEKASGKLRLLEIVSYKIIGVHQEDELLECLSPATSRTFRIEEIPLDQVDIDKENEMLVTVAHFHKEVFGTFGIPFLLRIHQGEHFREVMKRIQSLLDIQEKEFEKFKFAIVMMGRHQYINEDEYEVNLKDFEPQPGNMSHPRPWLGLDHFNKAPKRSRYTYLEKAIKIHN

In the case of `CN1CCN(CCC(=O)Nc2ccc3c(=O)n(CC4(O)CCN(C(=O)[C@H](CCCNC(=O)c5ccc6c(Cl)c7c(nc6c5)CCCC7)Cc5ccccc5)CC4)cnc3c2)CC1` [XL177B], the on-target activity [1] is listed as “on-target activity at higher doses” and the “potency relative to XL177A (fold less potent)” value [1] is listed as 500 fold.

For `C[C@]12CC[C@@H]3c4ccc(OC(=O)N(CCCl)CCCl)cc4CC[C@H]3[C@@H]1CC[C@@H]2O` [estramustine], the “patients with >50% decrease in serum PSA” value [2] is listed as 54%.

With IFN-γ: known inducer of HLA-I the “HLA-I fold increase in MFI” value ([3]; IFN-γ exposure, MCC-336, -350, -358) was at most 1.15 fold, the “HLA I surface expression, fold increase by MFI (median)” value [3, 10] was 5.7 fold and the “HLA I surface expression, fold increase by MFI (range)” value [3, 10] was 2.5 - 12.4 fold. The “response of HLA I surface expression to IFN-γ exposure” value ([3]; MCC-336, -350, -358) was “not responsive”, the HLA-DR expression [4] was “inducible HLA-DR expression; also recorded: upregulated HLA-DR expression” and the “increase in abundance of class I bound peptides (median)” value ([5]; across 4 cell lines) was 25 fold. For the same molecule, the “increase in abundance of class I bound peptides (median)” value ([5]; across 7 cell lines, comparable input material) was 12 fold, the “change in frequencies of peptides mapping to each HLA allele” value ([5]; cell lines with vs without IFN-γ) was “increase in HLA-B-presented peptides” and the “class I gene expression (RNA-seq)” value [6] was “markedly upregulated class I genes; also recorded: markedly upregulated class I gene transcripts”.

In the case of “Polyinosinic-Polycytidylic Acid-poly-L-lysine Carboxymethylcellulose [poly-ICLC]”, the “patients with induction of CD4+ and CD8+ T cell and antibody responses to the peptide” value [7] is listed as over 90% and the “differentially expressed genes versus placebo” value [8] is listed as “up to 212 genes”.

In the case of TSDKAIELY, the “detection of the epitope in the HLA-I peptidome” value ([5]; MCC-367 line, baseline vs IFN-γ) is reported as “detected only after IFN-γ treatment and not at baseline” and the “reactivity of autologous T cells (IFN-γ ELISpot)” value [9] is reported as “confirmed reactivity”.
